From patent US20240208954A1, “OXADIAZOLE COMPOUND, PREPARATION METHOD THEREFOR, PHARMACEUTICAL COMPOSITION AND USE THEREOF” (SHANGHAI INSTITUTE OF MATERIA MEDICA, CHINESE ACADEMY OF …, priority 2020, published 2024) come the findings set out here.

Common to all, as to format: cell-based
One test has as its target S1P5 (Homo sapiens, UniProt Q9H228). Put plainly: Subtype selectivity study, method of Experimental Example 1. How it is done: (§1) Experimental method: CHO-K1/Ga15/EDG1 cells stably expressing EDG1 receptor were cultured in a 10 cm culture dish in a 37° C./5% CO2incubator, and digested when the confluence rate reached 80%-85%. The cells in collected cell suspension were inoculated into 384 microtiter plates at appropriate density, and then placed in a 37° C./5% CO2 incubator and continue to incubate for at least 18 hours before using for experiments. After 18-20 hours, the cell culture plat was taken out and added with dye working solution, and then the plate was placed in a 37° C./5% CO2 incubator for 1 hour, and finally equilibrated at room temperature for 15 minutes. Positive agonist working solution was added, and RFU values were detected and recorded. The 384 microplates, cell plates and tip box with positive agonist working solution were placed into FLIPRTM TETRA and the agonist mode assay program was run with an overall assay time of 120 seconds. The positive agonist working fluid was added to the cell culture plate at the 21st second. 384 microplate, cell plate and gun head box containing the positive antagonist working fluid were put into the FLIPRTM TETRA. The antagonistic mode detection program, the overall detection time of the instrument was 120 seconds, and positive antagonist working solution was added to the cell culture plate at the 21st second. Data processing: Raw data were obtained via ScreenWorks (version 3.1) and saved as *FMD files on the […] computer network system. Data were collected and analyzed using Excel and GraphPad Prism 6 software programs. […] The four-parameter equation was as follows: y=Bottom+(Top-Bottom)/(1+10^((LogEC50/IC50-X)*HillSlope)), wherein X is the Log value of the concentration and Y was the inhibition rate. The S1P receptor selectivity was tested for different subtypes using the method described in Experimental Example 1.

In another test the target is S1P2 (Homo sapiens, UniProt O95136). The description is as above. How it is done: as §1
S1P2, sequence (O95136 whole entry, species assumed): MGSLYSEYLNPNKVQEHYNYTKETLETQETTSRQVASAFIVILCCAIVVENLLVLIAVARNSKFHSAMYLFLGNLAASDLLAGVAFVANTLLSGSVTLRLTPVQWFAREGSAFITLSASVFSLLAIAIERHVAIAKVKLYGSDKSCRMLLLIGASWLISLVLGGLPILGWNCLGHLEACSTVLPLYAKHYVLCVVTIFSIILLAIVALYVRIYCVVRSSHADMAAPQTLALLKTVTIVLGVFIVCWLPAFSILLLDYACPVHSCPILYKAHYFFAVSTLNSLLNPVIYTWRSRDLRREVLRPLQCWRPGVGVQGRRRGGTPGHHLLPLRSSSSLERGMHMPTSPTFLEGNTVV
The target in the next test is T1, S1P4 (Homo sapiens, UniProt O95977).
T1 sequence (O95977 1-384): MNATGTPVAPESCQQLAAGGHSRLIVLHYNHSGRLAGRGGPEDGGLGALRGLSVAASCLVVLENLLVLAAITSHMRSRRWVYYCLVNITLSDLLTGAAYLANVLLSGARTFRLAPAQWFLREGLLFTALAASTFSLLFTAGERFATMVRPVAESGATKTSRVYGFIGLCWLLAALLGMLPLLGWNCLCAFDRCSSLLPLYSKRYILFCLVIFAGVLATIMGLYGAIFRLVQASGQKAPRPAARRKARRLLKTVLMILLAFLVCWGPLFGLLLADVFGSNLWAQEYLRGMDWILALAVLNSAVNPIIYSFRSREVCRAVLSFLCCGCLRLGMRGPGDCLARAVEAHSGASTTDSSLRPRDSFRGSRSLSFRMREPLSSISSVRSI
Described as above. Here is the method:
as §1

In a further test the target is S1PR3 (Homo sapiens, UniProt Q99500). Put plainly: Agonistic activity test on S1P receptors, FLIPR. How it is done: Instrument: FLIPR™ TETRA (Molecular Device)
S1PR3, sequence (Q99500 whole entry, species assumed): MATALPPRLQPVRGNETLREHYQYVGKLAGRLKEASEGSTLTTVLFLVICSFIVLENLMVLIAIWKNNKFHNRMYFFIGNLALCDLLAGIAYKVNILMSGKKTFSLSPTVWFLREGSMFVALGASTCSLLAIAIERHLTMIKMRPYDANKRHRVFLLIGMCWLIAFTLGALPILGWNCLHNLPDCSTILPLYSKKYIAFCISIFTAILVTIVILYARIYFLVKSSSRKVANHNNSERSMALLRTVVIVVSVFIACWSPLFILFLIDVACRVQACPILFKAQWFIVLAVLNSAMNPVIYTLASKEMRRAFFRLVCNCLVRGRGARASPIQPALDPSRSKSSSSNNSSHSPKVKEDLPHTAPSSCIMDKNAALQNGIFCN
Sample processing: Before the experiment, the working solution with the corresponding concentration was prepared by diluting with GPCR dilution buffer.
After 18-20 hours, the cell culture plat was taken out and added with dye working solution, and then the plate was placed in a 37° C./5% CO2 incubator for 1 hour, and finally equilibrated at room temperature for 15 minutes. Positive agonist working solution was added, and RFU values were detected and recorded. […] The positive agonist working fluid was added to the cell culture plate at the 21st second. […] The antagonistic mode detection program, the overall detection time of the instrument was 120 seconds, and positive antagonist working solution was added to the cell culture plate at the 21st second.
Data processing: Raw data were obtained via ScreenWorks (version 3.1) and saved as *FMD files on the Kingsray computer network system. Data were collected and analyzed using Excel and GraphPad Prism 6 software programs. For each well, the average fluorescence intensity value from 1 to 20 seconds was used as the baseline, and the maximum fluorescence intensity value from 21 to 120 seconds minus the minimum fluorescence intensity value from 21 to 120 seconds was the relative fluorescence intensity value (ARFU), from which the percentage activation or inhibition can be calculated based on the following equation.
% Activation Rate=(ΔRFUCompound-ΔRFUBackground)/(ΔRFUAgonist control-ΔRFUBackground)×100%
The data was analyzed using GraphPad Prism 6 with a four-parameter equation to calculate the EC50 and IC50 values. The four-parameter equation was as follows: y=Bottom+(Top-Bottom)/(1+10^((LogEC50/IC50-X)*HillSlope)), wherein X is the Log value of the concentration and Y was the inhibition rate.

Each structure is given as a SMILES string. Read-outs that look alike come from different tables or passages of the source.

S1P5, sequence (Q9H228 whole entry, species assumed): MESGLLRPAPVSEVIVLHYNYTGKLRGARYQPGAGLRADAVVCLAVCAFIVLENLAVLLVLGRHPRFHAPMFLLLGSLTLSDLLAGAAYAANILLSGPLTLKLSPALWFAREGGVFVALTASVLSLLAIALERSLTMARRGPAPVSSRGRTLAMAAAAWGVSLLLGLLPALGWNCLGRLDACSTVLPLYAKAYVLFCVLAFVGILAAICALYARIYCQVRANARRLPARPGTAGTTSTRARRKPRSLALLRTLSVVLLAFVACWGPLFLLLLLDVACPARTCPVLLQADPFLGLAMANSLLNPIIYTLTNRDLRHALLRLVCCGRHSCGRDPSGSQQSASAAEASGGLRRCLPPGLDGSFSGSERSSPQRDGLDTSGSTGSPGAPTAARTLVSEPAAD

As a reminder, the EC50 is the concentration that produces a half-maximal response. Consider `CC(C)Oc1ccc(-c2nc(-c3ccc(CN4CC(C(=O)O)C4)c4ccccc34)no2)cc1C#N.Cl` [Compound A1, 1-((4-(5-(3-cyano-4-isopropoxyphenyl)-1,2,4-oxadiazol-3-yl)naphthalen-1-yl)methyl) azetidine-3-carboxylic acid hydrochloric acid], for which the EC50 was 0.12 µM on S1P5; greater than 10 µM at S1P2; greater than 10 µM at S1P4; greater than 10 µM at S1PR3 (FLIPR agonist mode, read-out: S1PR3 EC50); greater than 10 µM on S1PR3 (subtype selectivity study, read-out: S1P3 EC50).
